From PubChem BioAssay AID1919014 (Molecular Pharmacology Branch, DTP, NCI, 2023)
Several values for one entry are separate records, joined by “and”; a condition that tells them apart may be missing. Identical values can stand only once.

Test system: NCI-H1341 complex spheroids, percent test/control
Experiment: Anticancer human tumor NCI-H1341 cell line growth inhibition [AhR];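 also: spheroids exposed to agents for seven days before readout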
Conditions: for viability, T/C: stronger effect = lower value
Excerpt: Multicellular complex tumor spheroid response to aryl hydrocarbon receptor antagonists in combination with a variety of drugs and investigational agents in selected tumor cell lines
The current study was undertaken to assess response to aryl hydrocarbon receptor antagonists in combination with standard-of-care drugs and investigational agents in solid tumor complex spheroid models. Complex spheroids include a stromal component modeled by human endothelial cells (HUVEC) and fibroblasts modeled by human mesenchymal stem cells (MSCs). The concentration ranges selected for each drug and investigational agent were based upon clinically achievable concentrations if the clinical Cmax of the agent was known.
Compounds. The drugs and investigational agents: BAY 2416964 (NSC825713), GNF351 (NSC835774), CH-223191 (NSC835775), CPI-455 (NSC825282), aza-TdCyd (NSC777586), decitabine (NSC127716), belinostat (NSC758774), entinostat (NSC756642), pevonedistat (NSC761192), tazemetostat (NSC777109), talazoparib (NSC765396), olaparib (NSC753686), selinexor (NSC780203), nedisertib (M3814, NSC802822), bortezomib (NSC756655), venetoclax (NSC766270), doxorubicin (NSC123127), elimusertib (BAY189344, NSC800525), ceralasertib (AZD6738, NSC777638), TAK-243 (NSC785004), alisertib (NSC759677), etoposide (NSC141540), topotecan (NSC609699), eribulin (NSC707389), gemcitabine (NSC613327), carboplatin (NSC241240), cisplatin (NSC119875), and SN-38 (NSC673596) were obtained from the National Cancer Institute (NCI) Developmental Therapeutics Program Chemical Repository (32). The FDA-approved anticancer drug set is available from the Developmental Therapeutics Program at https://dtp.cancer.gov/organization/dscb/obtaining/available plates.htm. […] The stock solutions were prepared in dimethyl sulfoxide (DMSO, Sigma-Aldrich, St. Louis, MO, cat. D2650), except for the platinum compounds which were prepared in saline (Quality Biological, Gaithersburg, MD, cat. 114-055-101), at 800-fold the tested concentration and stored at -70 degrees C prior to their use. All drugs and investigational agents were tested over a range starting from a high concentration at or near the clinical Cmax and decreasing in half-log increments. If the clinical Cmax for an agent had not been determined, the highest concentration tested was 10 microM (Table 1).
Cell Culture. All cells were maintained in an incubator at 37 degrees C and 5% CO2 with 95% humidity. The PDC lines were cultured according to standard operating procedures established by the NCI PDMR (https://pdmr.cancer.gov). Briefly, all PDCs were thawed and cultured in Matrigel-coated flasks prepared with a working solution of 1X Ham's F-12 nutrient mix, without supplementation (Invitrogen, Waltham, MA, cat. 11765054), 100 U/mL penicillin-streptomycin (Invitrogen, cat. 15140122), and 2.5% Matrigel (Corning Inc., Corning, NY, cat. 354248) for the first three passages. All PDCs were cultured in complete DMEM/F-12 media containing advanced DMEM/F-12 (Invitrogen, cat. 12634028), 4.9% defined fetal bovine serum, heat inactivated (HyClone Laboratories Inc., Logan, UT, cat. SH30070.03HI), 389 ng/mL hydrocortisone (Sigma-Aldrich, cat. H4001), 9.7 ng/mL human EGF recombinant protein (Invitrogen, cat. PHG0313), 23.4 microg/mL adenine (Sigma-Aldrich, cat. A2786), 97.3 U/mL penicillin-streptomycin (Invitrogen, cat. 15140122), 1.9 mM L-glutamine (Invitrogen, cat. 25030081), and 9.7 microM Y-27632 dihydrochloride (Tocris Bioscience, Bristol, United Kingdom, cat. 1254). The PDCs were cultured in complete DMEM/F12 media without 10 microM Y-27632 dihydrochloride for at least two passages prior to the screen. The established cell lines NCI-H1341 and […] were cultured in DMEM/F-12, HEPES (Invitrogen, cat. 11330032), 5% defined fetal bovine serum (HyClone Laboratories Inc., cat. SH30070.03), ITS premix universal culture supplement [insulin (5 microg/mL), transferrin (5 microg/mL), and selenious acid (5 ng/mL)] […]

[1] = curve of first compound, second compound 0.1 µM
[2] = curve of first compound, second compound 0.316 µM
[3] = curve of first compound, second compound 1 µM
[4] = curve of first compound, second compound 3.16 µM
[5] = curve of first compound, second compound 10 µM
[6] = second compound 0.1 µM, first compound 0.0316 µM
[7] = second compound 0.1 µM, first compound 0.1 µM
[8] = second compound 0.1 µM, first compound 0.316 µM
[9] = second compound 0.1 µM, first compound 1 µM
[10] = second compound 0.1 µM, first compound 3.16 µM
[11] = second compound 0.1 µM, first compound 10 µM
[12] = second compound 0.316 µM, first compound 0.0316 µM
[13] = second compound 0.316 µM, first compound 0.1 µM
[14] = second compound 0.316 µM, first compound 0.316 µM
[15] = second compound 0.316 µM, first compound 1 µM
[16] = second compound 0.316 µM, first compound 3.16 µM
[17] = second compound 0.316 µM, first compound 10 µM
[18] = second compound 1 µM, first compound 0.0316 µM
[19] = second compound 1 µM, first compound 0.1 µM
[20] = second compound 1 µM, first compound 0.316 µM
[21] = second compound 1 µM, first compound 1 µM
[22] = second compound 1 µM, first compound 3.16 µM
[23] = second compound 1 µM, first compound 10 µM
[24] = second compound 3.16 µM, first compound 0.0316 µM
[25] = second compound 3.16 µM, first compound 0.1 µM
[26] = second compound 3.16 µM, first compound 0.316 µM
[27] = second compound 3.16 µM, first compound 1 µM
[28] = second compound 3.16 µM, first compound 3.16 µM
[29] = second compound 3.16 µM, first compound 10 µM
[30] = second compound 10 µM, first compound 0.0316 µM
[31] = second compound 10 µM, first compound 0.1 µM
[32] = second compound 10 µM, first compound 0.316 µM
[33] = second compound 10 µM, first compound 1 µM
[34] = second compound 10 µM, first compound 3.16 µM
[35] = second compound 10 µM, first compound 10 µM

Row | IC50 [1] [nM] | IC50 [2] [nM] | IC50 [3] [nM] | IC50 [4] [nM] | IC50 [5] [nM] | SMILES | viability, T/C [6] [%] | viability, T/C [7] [%] | viability, T/C [8] [%] | viability, T/C [9] [%] | viability, T/C [10] [%] | viability, T/C [11] [%] | viability, T/C [12] [%] | viability, T/C [13] [%] | viability, T/C [14] [%] | viability, T/C [15] [%] | viability, T/C [16] [%] | viability, T/C [17] [%] | viability, T/C [18] [%] | viability, T/C [19] [%] | viability, T/C [20] [%] | also measured
1 | 1470 | 1140 | 1060 | 1220 | 691 | COc1ccc([C@@H](O)c2cc(-c3ncnc4cc(N5CCOCC5)ccc34)c(F)cc2Cl)nn1 + CC(CO)NC(=O)c1cc(-c2ccc(Cl)cc2)nn(-c2cnn(C)c2)c1=O | 101 | 89.7 | 82.5 | 61 | 29.6 | 8.94 | 88 | 93.7 | 72.7 | 48.8 | 32.7 | 8.73 | 89.7 | 83.8 | 76.6 | viability, T/C [21]: 48.2%; viability, T/C [22]: 28.2%; viability, T/C [23]: 8.67%; viability, T/C [24]: 79.6%; viability, T/C [25]: 84.8%; viability, T/C [26]: 85.9%; viability, T/C [27]: 52.7%; viability, T/C [28]: 24%; viability, T/C [29]: 7.24%; viability, T/C [30]: 90.2%; viability, T/C [31]: 75.8%; viability, T/C [32]: 68.2%; viability, T/C [33]: 41.5%; viability, T/C [34]: 22.1%; viability, T/C [35]: 7.39%
2 |  |  |  |  |  | COc1cccc2c1C(=O)c1c(O)c3c(c(O)c1C2=O)CC(O)(C(=O)CO)CC3OC1CC(N)C(O)C(C)O1 (configuration not stated) |  |  |  |  |  |  |  |  |  |  |  |  |  |  |  | viability, T/C (compound 0.0316 µM): 49.4% and 58.5% and 51.1%; viability, T/C (compound 0.1 µM): 48.7% and 55.5% and 55.7%; viability, T/C (compound 0.316 µM): 35.4% and 44.5% and 30.1%; viability, T/C (compound 1 µM): 13.8% and 18.2% and 6.98%; viability, T/C (compound 3.16 µM): 0.92% and 1.68% and 0.74%; viability, T/C (compound 10 µM): 4.71% and 5.46% and 2.82%; IC50 (curve of compound): < 31.6 nM and 186 nM and 114 nM
3 | 582 | 604 | 596 | 647 | 380 | Nc1ccccc1NC(=O)c1ccc(CNC(=O)OCc2cccnc2)cc1 + Cc1ccccc1N=Nc1ccc(NC(=O)c2ccnn2C)c(C)c1 | 91.8 | 84.5 | 65.2 | 37.4 | 9.11 | 0.66 | 89.9 | 88.7 | 70.3 | 33.6 | 9.54 | 1.08 | 120 | 98.6 | 76.3 | viability, T/C [21]: 30.1%; viability, T/C [22]: 7.04%; viability, T/C [23]: 0.78%; viability, T/C [24]: 85.9%; viability, T/C [25]: 86.7%; viability, T/C [26]: 62%; viability, T/C [27]: 43.1%; viability, T/C [28]: 12.5%; viability, T/C [29]: 0.88%; viability, T/C [30]: 49.7%; viability, T/C [31]: 53.3%; viability, T/C [32]: 58.7%; viability, T/C [33]: 37.8%; viability, T/C [34]: 18.8%; viability, T/C [35]: 3.01%
4 | 416 | 611 | 283 | 233 | < 31.6 | COc1cc(C2c3cc4c(cc3C(OC3OC5COC(C)OC5C(O)C3O)C3COC(=O)C23)OCO4)cc(OC)c1O (configuration not stated) + Cc1cncc(-c2nc(NCCc3c[nH]c4ccccc34)c3ncn(C(C)C)c3n2)c1 | 74.3 | 89.4 | 54.7 | 36.6 | 34.1 | 34 | 79.5 | 76.3 | 62.2 | 40.9 | 35.1 | 34.2 | 74.9 | 72.9 | 47.6 | viability, T/C [21]: 36%; viability, T/C [22]: 40.5%; viability, T/C [23]: 34.2%; viability, T/C [24]: 76.1%; viability, T/C [25]: 61.4%; viability, T/C [26]: 41.7%; viability, T/C [27]: 44%; viability, T/C [28]: 35.7%; viability, T/C [29]: 32.7%; viability, T/C [30]: 30.6%; viability, T/C [31]: 27.4%; viability, T/C [32]: 23.1%; viability, T/C [33]: 23.5%; viability, T/C [34]: 14%; viability, T/C [35]: 14.1%
